What was measured:
[1] = molecular target: T1, GDP-loaded KRAS (1-169) G12C, C51S, C80L, C118S (Homo sapiens, UniProt P01116, C118S/C51S/C80L/G12C); experiment: Mass Spectrometry Reactivity Assay (MSRA): covalent adduct of compound and KRAS G12C, Percent Modification; type: binding; details: for MSRA (% modification) 5.0 μM 0.017 hr / MSRA (% modification) 5.0 μM 0.25 hr: 5.0 μM compound; for MSRA (% modification) 10 μM 0.25 hr / MSRA (% modification) 10 μM 0.50 hr: 10 μM compound
T1 construct: GDP-loaded KRAS (1-169) G12C, C51S, C80L, C118S
In short: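 GDP-loaded KRAS(1-169) G12C/C51S/C80L/C118S at 5 μM in 25 mM Hepes pH 7.5, 200 mM NaCl, 5% glycerol incubated at RT with compound (typically 5 or 10 μM final, 1% DMSO). Quenched in formic acid at 1-60 min; intact-protein LC-TOF MS gives % modification = modified/(modified+unmodified).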

KRAS G12C = KRAS G12C (Homo sapiens, UniProt P01116, G12C); experiment: Cell Activity Assay: accumulation of GDP-bound KRAS G12C in MIAPaCa-2 cells (Raf-1 RBD capture, MSD readout); type: cell-based; design: endogenous in cells; host or cells: MIAPaCa-2; details: 6 hours, assay limit is 30.00
In short: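 MIAPaCa-2 cells exposed 6 h at 37 °C to 3-fold compound dilutions (0.3% DMSO final), then lysed. Active GTP-KRAS captured on Raf-1 RBD-coated plates, detected with anti-pan-Ras and SULFO-TAG secondary by MSD electrochemiluminescence. Signal normalized to DMSO and maximum inhibition; IC50 from 4-parameter fit.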

Row | SMILES | MSRA (% modification) 5.0 μM 0.017 hr [1] | IC50 (KRAS G12C) | MSRA (% modification) 10 μM 0.25 hr [1] | MSRA (% modification) 10 μM 0.50 hr [1] | MSRA (% modification) 5.0 μM 0.25 hr [1]
1 | C=CC(=O)N1CCN(c2nc(O[C@@H]3CN(C)C[C@H]3OC)nc3c(Oc4c(C)c(Cl)cc5[nH]ncc45)nccc23)CC1 [Example 40I, 1-[4-(8-[(6-chloro-5-methyl-1H-indazol-4-yl)oxy]-2-{[(3R,4R)-4-methoxy-1-methyl-pyrrolidin-3-yl]oxy}pyrido [3,4-d]pyrimidin-4-yl)piperazin-1-yl]prop-2-en-1-one] | 68% | 0.02 µM |  |  | 
2 | C=CC(=O)N1CCN(c2nc(O[C@@H]3CN(C)C[C@H]3C(F)F)nc3c(Oc4c(Cl)c(F)cc5[nH]ncc45)nccc23)CC1 (single isomer, unassigned) [Example 59I] | 13% | 0.123 µM |  |  | 
3 | C=CC(=O)N1CCN(c2ncnc3c(Oc4c(C)ccc5[nH]ncc45)cccc23)C[C@H]1C [Example 03C, 1-[(2R)-2-methyl-4-{8-[(5-methyl-1H-indazol-4-yl)oxy]quinazolin-4-yl}piperazin-1-yl]prop-2-en-1-one] |  | 24.2 µM | 3% | 8% | 
4 | C=CC(=O)N1CCN(c2nc(OC[C@]3(F)CCCN(C)C3)nc3c(Oc4c(Cl)c(F)cc5[nH]ncc45)nccc23)CC1 [Example 02I, 1-[4-(8-[(5-chloro-6-fluoro-1H-indazol-4-yl)oxy]-2-{[(3S)-3-fluoro-1-methylpiperidin-3-yl]methoxy}pyrido[3,4-d]pyrimidin-4-yl)piperazin-1-yl]prop-2-en-1-one] |  | 0.049 µM |  |  | 81%
5 | C=CC(=O)N1CCN(c2nc(OC)nc3c(Oc4c(C)ccc5[nH]ncc45)nccc23)CC1 [Example 01B, 1-(4-{2-methoxy-8-[(5-methyl-1H-indazol-4-yl)oxy]pyrido[3,4-d]pyrimidin-4-yl}piperazin-1-yl)prop-2-en-1-one] |  | 16.9 µM |  | 12% | 
6 | C=CC(=O)N1CCN(c2nc(OCCc3ncc[nH]3)nc3c(Oc4c(C)ccc5[nH]ncc45)cccc23)CC1 [Example 09F, 1-(4-{2-[2-(1H-imidazol-2-yl)ethoxy]-8-[(5-methyl-1H-indazol-4-yl)oxy]quinazolin-4-yl}piperazin-1-yl)prop-2-en-1-one] |  | 3 µM | 64% | 75% | 
7 | C=CC(=O)N1CCN(c2nc(OC[C@H]3CCN(C)C3)nc3c(Oc4c(C)ccc5[nH]ncc45)nccc23)CC1 [Example 19E, 1-[4-(8-[(5-methyl-1H-indazol-4-yl)oxy]-2-{[(3S)-1-methylpyrrolidin-3-yl]methoxy}pyrido[3,4-d]pyrimidin-4-yl)piperazin-1-yl]prop-2-en-1-one] |  | 29.8 µM | 33% |  | 
8 | C=CC(=O)N1CCN(c2nc(OC[C@@]3(F)CCN(C)C3)nc3c(Oc4c(Cl)c(F)cc5[nH]ncc45)nccc23)CC1 [Example 15H, 1-[4-(8-[(5-chloro-6-fluoro-1H-indazol-4-yl)oxy]-2-{[(3R)-3-fluoro-1-methylpyrrolidin-3-yl]methoxy}pyrido[3,4-d]pyrimidin-4-yl)piperazin-1-yl]prop-2-en-1-one] |  | 0.461 µM | 54% |  | 25%
9 | C=CC(=O)N1CCN(c2nc(OC[C@@H]3C[C@@H](F)CN3C)nc3c(Oc4c(Cl)c(F)cc5[nH]ncc45)nccc23)CC1 [Example 16H, 1-[4-(8-[(5-chloro-6-fluoro-1H-indazol-4-yl)oxy]-2-{[(2S,4R)-4-fluoro-1-methylpyrrolidin-2-yl]methoxy}pyrido[3,4-d]pyrimidin-4-yl)piperazin-1-yl]prop-2-en-1-one] |  | 0.169 µM |  |  | 57%
10 | C=CC(=O)N1CCN(c2nc(O[C@@H]3CN(C)C[C@H]3OC)nc3c(Oc4c(Cl)c(F)cc5[nH]ncc45)nccc23)[C@@H](C)C1 [Example 33I, 1-[(3S)-4-(8-[(5-chloro-6-fluoro-1H-indazol-4-yl)oxy]-2-{[(3R,4R)-4-methoxy-1-methyl-pyrrolidin-3-yl]oxy}pyrido [3,4-d]pyrimidin-4-yl)-3-methyl-piperazin-1-yl]prop-2-en-1-one] | 74% | 0.039 µM |  |  | 
11 | C=CC(=O)N1CCN(c2ncnc3c(Oc4c(C)c(Cl)cc5[nH]ncc45)nc(C#N)cc23)C[C@@H]1C [Example 33A, 4-[(3S)-4-acryloyl-3-methylpiperazin-1-yl]-8-[(6-chloro-5-methyl-1H-indazol-4-yl)oxy]pyrido[3,4-d]pyrimidine-6-carbonitrile] |  | > 30 µM |  | 34% | 
12 | C=CC(=O)N1CCN(c2nc(OC[C@H]3CCCN3C)nc3c(Oc4c(Cl)c(F)cc5[nH]ncc45)cccc23)CC1 [Example 20E, 1-[4-(8-[(5-chloro-6-fluoro-1H-indazol-4-yl)oxy]-2-{[(2R)-1-methylpyrrolidin-2-yl]methoxy}quinazolin-4-yl)piperazin-1-yl]prop-2-en-1-one] |  | 1.02 µM | 8% |  | 
13 | C=CC(=O)N1CCN(c2nc(O[C@@H]3CN(C)C[C@H]3OC)nc3c(Oc4c(Cl)ccc5[nH]ncc45)nc(Cl)cc23)CC1 [Example 38G, 1-[4-(6-chloro-8-[(5-chloro-1H-indazol-4-yl)oxy]-2-{[(3R,4R)-4-methoxy-1-methylpyrrolidin-3-yl]oxy}pyrido[3,4-d]pyrimidin-4-yl)piperazin-1-yl]prop-2-en-1-one] | 75% | 0.021 µM |  |  | 
14 | C=CC(=O)N1CCN(c2nc(OC[C@@H]3CCN(C)C3)nc3c(Oc4c(C)ccc5[nH]ncc45)nccc23)CC1 [Example 10B, 1-[4-(8-[(5-methyl-1H-indazol-4-yl)oxy]-2-{[(3R)-1-methylpyrrolidin-3-yl]methoxy}pyrido[3,4-d]pyrimidin-4-yl)piperazin-1-yl]prop-2-en-1-one] |  | 13.4 µM | 60% |  | 
15 | C=CC(=O)N1CCN(c2nc(OCCN3CCCC3)nc3c(Oc4c(C)ccc5[nH]ncc45)nccc23)CC1 [Example 12B, 1-(4-{8-[(5-methyl-1H-indazol-4-yl)oxy]-2-[2-(pyrrolidin-1-yl)ethoxy]pyrido[3,4-d]pyrimidin-4-yl}piperazin-1-yl)prop-2-en-1-one] |  | 5.45 µM | 21% |  | 
16 | C=CC(=O)N1CCN(c2nc(Oc3cccnc3C(F)(F)F)nc3c(Oc4c(Cl)c(F)cc5[nH]ncc45)nccc23)CC1 [Example 07I, 1-[4-(8-[(5-chloro-6-fluoro-1H-indazol-4-yl)oxy]-2-{[2-(trifluoro-methyl)pyridin-3-yl]oxy}pyrido [3,4-s]pyrimidin-4-yl)piperazin-1-yl]prop-2-en-1-one] |  | 0.331 µM |  |  | 46%
17 | C=CC(=O)N1CCN(c2ncnc3c(Oc4c(C)ccc5[nH]ncc45)cccc23)CC1 [Example 01C, 1-(4-{8-[(5-methyl-1H-indazol-4-yl)oxy]quinazolin-4-yl}piperazin-1-yl)prop-2-en-1-one] |  | 5.92 µM |  | 18% | 
18 | C=CC(=O)N1CCN(c2nc(O[C@@H]3CN(C)C[C@H]3C(F)(F)F)nc3c(Oc4c(Cl)c(F)cc5[nH]ncc45)nccc23)CC1 [Example 57I, 1-[4-(8-[(5-chloro-6-fluoro-1H-indazol-4-yl)oxy]-2-{[(3S,4R)-1-methyl-4-(trifluoro-methyl)pyrrolidin-3-yl]oxy}pyrido [3,4-d]pyrimidin-4-yl)piperazin-1-yl]prop-2-en-1-one] | 22% | 0.024 µM |  |  | 
19 | C=CC(=O)N1CCN(c2nc(OC[C@H]3COCCN3C)nc3c(Oc4c(Cl)c(F)cc5[nH]ncc45)nccc23)CC1 [Example 10H, 1-[4-(8-[(5-chloro-6-fluoro-1H-indazol-4-yl)oxy]-2-{[(3R)-4-methylmorpholin-3-yl]methoxy}pyrido[3,4-d]pyrimidin-4-yl)piperazin-1-yl]prop-2-en-1-one] |  | 0.965 µM |  | 68% | 47%
20 | C=CC(=O)N1CCN(c2nc(N3CC(N(C)C)C3)nc3c(Oc4c(Cl)c(C)cc5[nH]ncc45)nc(C)cc23)CC1 [Example 01E, 1-(4-{8-[(5-Chloro-6-methyl-1H-indazol-4-yl)oxy]-2-[3-(dimethylamino)azetidin-1-yl]-6-methylpyrido[3,4-d]pyrimidin-4-yl}piperazin-1-yl)prop-2-en-1-one] |  | 2.41 µM |  | 29% | 
21 | C=CC(=O)N1CCN(c2ncnc3c(Oc4c(F)c(Cl)cc5[nH]ncc45)nc(Cl)cc23)CC1 [Example 34A, 1-(4-{6-chloro-8-[(6-chloro-5-fluoro-1H-indazol-4-yl)oxy]pyrido[3,4-d]pyrimidin-4-yl}piperazin-1-yl)prop-2-en-1-one] |  | 1.29 µM | 47% |  | 19%

From patent publication US10662204B2 (PFIZER INC., priority 2018, dated 2020)
